Laboratory results published in paper PMC8895007, “Crystal structures of PigF, an O-methyltransferase involved in the prodigiosin synthetic pathway, reveal an induced-fit substrate-recognition mechanism” (IUCrJ, 2022).

How the values were obtained:
[1] = target: T1, PigF (Serratia marcescens, UniProt Q5W249); assay: X-ray crystal structure (co-crystallisation), […] A; format: binding; conditions: 2 mM SAH premixed 30 min; pH 4.6, 12% MPD; cofactor site in C-terminal catalytic domain
T1 construct: residues 3-338 seen in SAH complex

[2] = target: the molecule itself; assay: native gel or EMSA; nondenaturing gel, comparison with standards; PigF in solution

For `Nc1ncnc2c1ncn2[C@@H]1O[C@H](CSCC[C@H](N)C(=O)O)[C@@H](O)[C@H]1O` [S-adenosylhomocysteine], the “X-ray crystal structure (co-crystallisation), 1.97 A” value [1] was “the resulting phased map revealed clear electron density for the entire protein molecule and the SAH cofactor”.

B1: PigF, O-methyltransferase of the prodigiosin synthetic pathway from Serratia marcescens FS14 (enzyme)
chain: MPLTKQDAVNQMMGFFQAKALTAALALKLFDQLRDRDADAAHIAARLDCPARSTEQLLIALRAMGYLDQRDGLYHLPAAHRAFLLSDEPQWLGWLGRHIDTFLYPLWGELKTAVRNDAHQRRTVFGDDRSWFDILYQNPDDVADFQEFLGKFAAPFIAGFVRDYDFSQHRAFLDIGSGIGSLPMAIADAYPGIALAICELPQASAFLRDKLTLQGYGERIDVVEGDVISGDLPIGGYDLIHLGWMLHDYAPETQLTILRNIYRAMPAGGRFIASETPLNEDKSGPEFTALLSLNMLVSTDGGIESSAQEYLDRFRLAGFSNARIMKIAGPRTLIVGEK
notes: PigF of Serratia marcescens FS14, 338 amino-acid residues; 100% identical to PigF of S. marcescens VGH107 (NCBI WP 004940222.1); residues 3-338 are seen in both chains of the PigF-SAH structure; Cloned into pET-24b as in Liu et al., 2012; The results call the protein N-terminally polyhistidine-tagged; pET-24b usually adds a C-terminal His tag (surmise); Crystallised with 2 mM SAH (small molecule) …
With B1 the “stoichiometry N” value [2] was 2.
